In patent publication US9029337B2, “Modulation of factor 7 expression” (Isis Pharmaceuticals, Inc., priority 2007, dated 2015):
Strand notation (5' to 3'): a small letter for the sugar, then the base; units joined by * are phosphorothioate-linked, units joined directly phosphodiester-linked; [ ] holds rarer units or linkages, { } end groups; capitals alone tell only the bases. e = 2'-O-(2-methoxyethyl) (MOE); [5mC] = 5-methylcytosine; d = 2'-deoxy (DNA)

system: human Factor 7 mRNA; assay: Antisense inhibition of human Factor 7 mRNA in HepB3 cells, 50 nM antisense oligonucleotide, lipofectin; format: cell-based; conditions: Table 1, 50 nM, lipofectin, approximately 24 hours, relative to untreated control cells
Summary of the method: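 Percent inhibition of Factor 7 mRNA, relative to untreated control, comes from real-time RT-PCR with RIBOGREEN normalization, using primer probe set RTS 2927 in some runs. RNA was taken roughly 24 h after lipofectin delivery of 50 nM oligonucleotide into HepB3 cells.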

Substance	% Inhibition [%]
407941 (antisense eG*eA*eG*eA*e[5mC]*dG*d[5mC]*dA*dG*d[5mC]*d[5mC]*dG*dT*dT*dT*eA*eT*eT*eG*eT) [compound 407941]	65
407658 (antisense eG*e[5mC]*eT*eT*eG*d[5mC]*d[5mC]*dG*dG*dA*dG*dT*d[5mC]*dT*dG*eA*eG*eT*eG*eG) [compound 407658]	16
407665 (antisense eG*eT*eT*eA*e[5mC]*dG*dA*dA*dG*dA*d[5mC]*dT*dG*dG*dG*eA*eA*eA*eT*eG) [compound 407665]	29
407644 (antisense eG*eA*eG*eG*eA*d[5mC]*dA*dG*d[5mC]*dA*d[5mC]*dA*d[5mC]*dA*dT*eG*eG*eA*eG*eT) [compound 407644]	66
407926 (antisense e[5mC]*e[5mC]*eA*eG*eG*dA*d[5mC]*dA*dA*d[5mC]*d[5mC]*dT*dT*dG*dG*e[5mC]*eA*e[5mC]*eT*e[5mC]) [compound 407926]	79
407608 (antisense eT*eA*eT*eA*eG*dG*dA*d[5mC]*dT*dG*dG*dA*dG*d[5mC]*dT*eG*eG*eT*e[5mC]*e[5mC]) [compound 407608]	13
407598 (antisense e[5mC]*e[5mC]*eA*eT*eG*dA*dT*dG*dA*dA*dA*dT*d[5mC]*dT*d[5mC]*eT*eG*e[5mC]*eA*eG) [compound 407598]	72
407963 (antisense eA*eG*eA*eG*e[5mC]*dA*dG*dG*dG*dT*dG*d[5mC]*d[5mC]*dT*dT*eG*eG*eA*eA*eG) [compound 407963]	33
407924 (antisense eG*eA*eT*eT*eT*dG*dG*dT*dG*d[5mC]*d[5mC]*dA*dG*dG*dA*e[5mC]*eA*eG*eT*eT) [compound 407924]	68

same assay, conditions: Table 6, 50 nM, lipofectin, approximately 24 hours

Substance	% Inhibition [%]
422264 (antisense e[5mC]*eG*dG*dA*dA*dG*dA*dA*dG*dG*dG*dA*d[5mC]*dG*dG*eA*eA*eG*eG*eT) [compound 422264]	24
422270 (antisense eT*eG*dA*dG*d[5mC]*dG*d[5mC]*dG*dG*dA*dA*dG*dA*dA*dG*eG*eG*eA*e[5mC]*eG) [compound 422270]	15
422187 (antisense e[5mC]*eG*eG*dA*dA*dG*dA*dA*dG*dG*dG*dA*d[5mC]*dG*dG*dA*dA*eG*eG*eT) [compound 422187]	28
422267 (antisense eG*e[5mC]*dG*d[5mC]*dG*dG*dA*dA*dG*dA*dA*dG*dG*dG*dA*e[5mC]*eG*eG*eA*eA) [compound 422267]	38
422123 (antisense eG*eA*eG*e[5mC]*eG*d[5mC]*dG*dG*dA*dA*dG*dA*dA*dG*dG*eG*eA*e[5mC]*eG*eG) [compound 422123]	16

same assay, conditions: Table 13 (microwalk), 50 nM, lipofectin, approximately 24 hours

Substance	% Inhibition [%]
422230 (antisense e[5mC]*eA*dT*dG*d[5mC]*dA*dT*dG*dG*dT*dG*dA*dT*dG*d[5mC]*eT*eT*e[5mC]*eT*eG) [compound 422230]	65
422149 (antisense e[5mC]*eA*eT*dG*dG*dT*dG*dA*dT*dG*d[5mC]*dT*dT*d[5mC]*dT*dG*dA*eA*eT*eT) [compound 422149]	61

same assay, conditions: gapmers targeted to nucleobases 4868 to 4899 of SEQ ID NO: 1, Table 8

Substance	% Inhibition of human Factor 7 mRNA levels [%]
422144 (antisense e[5mC]*e[5mC]*e[5mC]*eG*eA*dG*dT*dT*d[5mC]*dT*dG*d[5mC]*dA*dG*dG*eA*eG*e[5mC]*eG*eG) [compound 422144]	58
422290 (antisense eT*e[5mC]*dT*dG*d[5mC]*dA*dG*dG*dA*dG*d[5mC]*dG*dG*d[5mC]*d[5mC]*eT*eA*eA*eA*eT) [compound 422290]	50

same assay, conditions: lipofectin, 50 nM antisense oligonucleotide, approximately 24 hours, Factor 7 mRNA by real-time RT-PCR (RTS 2927), relative to untreated control

Substance	% Inhibition [%]
416555 (antisense eA*eA*eA*eG*eA*dT*d[5mC]*dA*dG*dG*d[5mC]*dA*dA*dA*dG*eA*eT*e[5mC]*e[5mC]*e[5mC]) [compound 416555]	6
416522 (antisense eG*eG*e[5mC]*eT*eG*dA*dG*dA*dA*dT*dT*dG*d[5mC]*d[5mC]*d[5mC]*eA*eG*eG*eG*e[5mC]) [compound 416522]	25
416542 (antisense e[5mC]*eA*eG*eG*eG*dT*dG*d[5mC]*d[5mC]*d[5mC]*dA*dT*d[5mC]*d[5mC]*dT*eA*eG*eT*e[5mC]*eA) [compound 416542]	56
416526 (antisense eT*eG*eT*e[5mC]*e[5mC]*dA*d[5mC]*dA*dT*dG*dA*d[5mC]*d[5mC]*d[5mC]*d[5mC]*eA*e[5mC]*eA*eG*eG) [compound 416526]	19
416488 (antisense e[5mC]*eA*eG*eG*eT*d[5mC]*d[5mC]*dT*d[5mC]*d[5mC]*d[5mC]*dA*d[5mC]*dT*dG*e[5mC]*eA*eG*e[5mC]*e[5mC]) [compound 416488]	41
416541 (antisense e[5mC]*e[5mC]*eA*e[5mC]*e[5mC]*d[5mC]*dT*dT*dG*dG*dT*dG*d[5mC]*d[5mC]*d[5mC]*eA*eG*eA*eT*e[5mC]) [compound 416541]	53
416499 (antisense eG*eA*eG*eA*eG*d[5mC]*dT*dG*d[5mC]*dA*d[5mC]*d[5mC]*dT*dG*dG*e[5mC]*e[5mC]*eG*eG*e[5mC]) [compound 416499]	7
416528 (antisense eT*eG*eA*eT*eA*dA*dA*dA*d[5mC]*d[5mC]*dT*d[5mC]*dT*dG*dG*eA*e[5mC]*eA*e[5mC]*e[5mC]) [compound 416528]	10
416466 (antisense eT*eG*eT*eG*eG*dG*d[5mC]*d[5mC]*dT*d[5mC]*d[5mC]*dA*d[5mC]*dT*dG*eT*e[5mC]*e[5mC]*e[5mC]*e[5mC]) [compound 416466]	57
416459 (antisense eT*eG*eG*eT*e[5mC]*dA*dG*dT*dG*dA*dG*dG*dA*d[5mC]*d[5mC]*eA*e[5mC]*eG*eG*eG) [compound 416459]	23
416551 (antisense e[5mC]*eA*eG*eA*eA*dA*d[5mC]*dA*d[5mC]*d[5mC]*d[5mC]*dA*dT*d[5mC]*d[5mC]*eT*e[5mC]*eT*eG*eA) [compound 416551]	19
416447 (antisense e[5mC]*eA*eT*eG*eG*dA*dT*dA*dT*dT*d[5mC]*dA*dA*d[5mC]*dT*eG*eT*eG*eG*eG) [compound 416447]	17
416498 (antisense eG*eG*e[5mC]*e[5mC]*eA*dG*dT*dG*dG*d[5mC]*d[5mC]*dA*dT*dG*d[5mC]*eA*eT*e[5mC]*e[5mC]*e[5mC]) [compound 416498]	5
416437 (antisense eA*eG*eG*e[5mC]*eA*d[5mC]*dA*d[5mC]*dT*dG*dG*dT*d[5mC]*d[5mC]*d[5mC]*e[5mC]*eA*eT*e[5mC]*eA) [compound 416437]	52

same assay, conditions: oligonucleotides targeted to nucleobases 11830 to 11869 of SEQ ID NO: 1 (Table 9)

Substance	% Inhibition (human Factor 7 mRNA levels) [%]
422246 (antisense e[5mC]*eT*dG*dA*dG*dG*dA*dG*dA*d[5mC]*dA*dA*dT*dG*dG*eT*e[5mC]*eA*eG*eG) [compound 422246]	46
422089 (antisense eG*eT*e[5mC]*eA*eG*dG*dG*d[5mC]*dT*dG*dG*dT*dT*dT*dT*eG*eG*eA*eG*eG) [compound 422089]	22
422161 (antisense eA*e[5mC]*eA*dA*dT*dG*dG*dT*d[5mC]*dA*dG*dG*dG*d[5mC]*dT*dG*dG*eT*eT*eT) [compound 422161]	53
422238 (antisense eA*e[5mC]*dA*dA*dT*dG*dG*dT*d[5mC]*dA*dG*dG*dG*d[5mC]*dT*eG*eG*eT*eT*eT) [compound 422238]	64
422093 (antisense eA*eA*eT*eG*eG*dT*d[5mC]*dA*dG*dG*dG*d[5mC]*dT*dG*dG*eT*eT*eT*eT*eG) [compound 422093]	42
422250 (antisense e[5mC]*eT*dG*dG*d[5mC]*dT*dG*dA*dG*dG*dA*dG*dA*d[5mC]*dA*eA*eT*eG*eG*eT) [compound 422250]	54

same assay, conditions: oligonucleotides targeted to nucleobases 13760 to 13789 of SEQ ID NO: 1 (Table 10)

Substance	% Inhibition (human Factor 7 mRNA levels) [%]
422113 (antisense eG*e[5mC]*e[5mC]*eA*e[5mC]*d[5mC]*d[5mC]*dG*d[5mC]*d[5mC]*dG*dG*d[5mC]*dT*d[5mC]*eT*eG*e[5mC]*eT*e[5mC]) [compound 422113]	68
422116 (antisense eT*eG*e[5mC]*eG*e[5mC]*d[5mC]*dA*d[5mC]*d[5mC]*d[5mC]*dG*d[5mC]*d[5mC]*dG*dG*e[5mC]*eT*e[5mC]*eT*eG) [compound 422116]	52
422111 (antisense e[5mC]*eA*e[5mC]*e[5mC]*e[5mC]*dG*d[5mC]*d[5mC]*dG*dG*d[5mC]*dT*d[5mC]*dT*dG*e[5mC]*eT*e[5mC]*eA*eT) [compound 422111]	37

same assay, conditions: oligonucleotides targeted to nucleobases 14707 to 14732 of SEQ ID NO: 1 (Table 11)

Substance	% Inhibition (human Factor 7 mRNA levels) [%]
422281 (antisense eG*e[5mC]*dA*dG*d[5mC]*d[5mC]*dT*dG*dA*dG*dG*d[5mC]*d[5mC]*dA*dG*e[5mC]*eA*eG*eA*eT) [compound 422281]	57

same assay, conditions: oligonucleotides targeted to nucleobases 15098 to 15122 of SEQ ID NO: 1 (Table 12)

Substance	% Inhibition (human Factor 7 mRNA levels) [%]
422137 (antisense eA*e[5mC]*eA*eG*e[5mC]*dA*d[5mC]*dA*d[5mC]*dA*dT*dG*dG*dA*dG*eT*e[5mC]*eA*eG*e[5mC]) [compound 422137]	45
422286 (antisense eA*eG*d[5mC]*dA*d[5mC]*dA*d[5mC]*dA*dT*dG*dG*dA*dG*dT*d[5mC]*eA*eG*e[5mC]*eA*eT) [compound 422286]	53
422289 (antisense eG*eA*d[5mC]*dA*dG*d[5mC]*dA*d[5mC]*dA*d[5mC]*dA*dT*dG*dG*dA*eG*eT*e[5mC]*eA*eG) [compound 422289]	34
